pEC50, pIC50: −log10 of the molar value. “And” between values parts separate entries of the source, which are not always exact repeats. Equal values may be shown once. “Also recorded” adds a separate entry of the source.
Tests used:
[1] = system: nSMase2; details: literature value; read-out: nSMase2 IC50 of prototype inhibitor; cited from earlier work
[2] = cited from earlier work
[3] = system: primary astrocytes; experiment: Inhibition of exosome (EV) release from primary astrocytes; format: cell-based, mouse; details: 2 h; for effect on exosome (EV) release in vitro, in words: primary astrocytes, FBS withdrawal, 0.03-30 μM
[4] = system: Rat primary astrocytes; experiment: GFAP immunofluorescence, activation of serum-deprived astrocytes; format: cell-based; details: 10 μM, 2 h; for GFAP levels without serum starvation: complete medium; for astrocyte activation (GFAP) in response to serum starvation: serum deprivation
Procedure: Media was collected after 2 h incubation and centrifuged at 2700 g for 15 minutes at 4° C. Supernatant was collected and the number of extracellular vesicles (EVs) was quantified using ZetaView Nanoparticle Tracker. The mean concentration of EVs/mL (±SEM) was calculated from 4 replicate experiments. […] GFP-containing exosomes released from astrocytes in the brain were quantified in plasma of mice 2.5 h following compound administration. Data are mean±SD, n=5-10 mice per condition. *, p<0.05 compared to saline control; ###, p<0.001 compared to IL1-β group; ***, p<0.001 compared to saline group. […] Astrocytes grown in complete medium were used as no treatment control. Cells were fixed and stained with anti-GFAP antibody (1:500, Sigma). Fluorescence intensity was measured using Image J. (FIG. 5D) Quantitation of fluorescence in (FIG. 5C). Bar graph represents background corrected mean fluorescence intensity measured from 100 astrocytes per condition. Error bars represent standard error of mean. One-way ANOVA followed by Tukey's posthoc test was performed;
Cells were fixed and immunofluorescence labeling for GFAP was performed.

[5] = system: GFAP-GFP mice; experiment: Mouse model of brain inflammation, striatal IL-1β injection in GFAP-GFP mice
[6] = target: alkaline phosphatase; experiment: Counter assay without nSMase2, phosphorylcholine as substrate; format: biochemical; details: phosphorylcholine 2 μM, no nSMase2, no SM; read-out: IC50 alkaline phosphatase in counter screen
Procedure: Following assay validation, 365,000 compounds were screened from the Molecular Libraries Small Molecule Repository (MLSMR) and 2816 compounds were screened from the NCGC pharmaceutical collection (NPC) library for human nSMase2 inhibitors. Compounds were screened at 4 concentrations: 1.1 μM, 11 μM, 57 μM and 114 μM. Cambinol (full does response in each plate) was used as positive control. After eliminating promiscuous compounds, 1990 compounds that had maximal inhibitory responses >50% at the highest concentration tested and robust curve response classes (CRC) (Inglese, et al., 2006) were selected for re-testing in the same human nSMase2 activity assay and counter screen. […] There were a total of 220 compounds for follow-up confirmation (FIG. 2A).

[7] = target: T1, acid sphingomyelinase (Homo sapiens, UniProt P17405); experiment: Acid sphingomyelinase selectivity study, standard protocol; format: biochemical; details: results not shown
T1 sequence (P17405 47-631): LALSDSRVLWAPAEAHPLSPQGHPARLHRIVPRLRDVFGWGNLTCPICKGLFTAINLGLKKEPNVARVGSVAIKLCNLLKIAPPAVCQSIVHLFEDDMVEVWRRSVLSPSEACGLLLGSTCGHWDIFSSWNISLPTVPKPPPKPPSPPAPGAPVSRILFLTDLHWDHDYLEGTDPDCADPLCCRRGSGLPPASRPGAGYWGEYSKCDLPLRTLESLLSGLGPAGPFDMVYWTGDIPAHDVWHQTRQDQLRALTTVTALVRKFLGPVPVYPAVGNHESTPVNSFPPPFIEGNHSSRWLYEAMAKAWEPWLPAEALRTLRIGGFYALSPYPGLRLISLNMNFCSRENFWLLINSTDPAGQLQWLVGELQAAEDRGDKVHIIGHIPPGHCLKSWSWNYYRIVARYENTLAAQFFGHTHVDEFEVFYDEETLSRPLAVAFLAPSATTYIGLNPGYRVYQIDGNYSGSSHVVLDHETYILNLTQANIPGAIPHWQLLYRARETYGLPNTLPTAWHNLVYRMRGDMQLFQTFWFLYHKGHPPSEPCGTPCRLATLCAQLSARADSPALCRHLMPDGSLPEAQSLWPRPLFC

[8] = Metabolic stability in mouse liver microsomes; format: in vitro ADME
Procedure: (§1) One potential liability when using chemical probes in vivo is lack of metabolic stability which structurally inactivates the compound before it can reach its molecular target. […] Percent of drug remaining over time was determined by liquid chromatography-tandem mass spectrometry analysis (LC/MS/MS).
(§2) Metabolic stability assay was conducted in mouse or human liver microsomes as has been described previously (Rais, et al., 2016) with minor modifications. Briefly, the reaction was carried out using potassium phosphate buffer (100 mM, pH 7.4), in the presence of an NADPH regenerating system (compound final concentration was 1 μM; 0.2 mg/mL microsomes). Compound disappearance was monitored over time using a liquid chromatography and tandem mass spectrometry (LC/MS/MS) method. Chromatographic analysis was performed using an Accela ultra high-performance system consisting of an analytical pump and an autosampler coupled with a TSQ Vantage mass spectrometer (Thermo Fisher Scientific Inc., Waltham, Mass.). […] The mobile phase consisted of 0.1% formic acid in acetonitrile and 0.1% formic acid in water with gradient elution.

[9] = Metabolic stability in human liver microsomes; format: in vitro ADME
Procedure: as §1, §2

[10] = in 19 of 759 bioassays; cited from earlier work
[11] = target: T2, human nSMase2 (Homo sapiens, UniProt Q9NY59); experiment: Fluorescence-based (Amplex Red) human nSMase2 activity assay; details: rate vs SM concentration at several DPTIP concentrations
T2 sequence (Q9NY59 1-655): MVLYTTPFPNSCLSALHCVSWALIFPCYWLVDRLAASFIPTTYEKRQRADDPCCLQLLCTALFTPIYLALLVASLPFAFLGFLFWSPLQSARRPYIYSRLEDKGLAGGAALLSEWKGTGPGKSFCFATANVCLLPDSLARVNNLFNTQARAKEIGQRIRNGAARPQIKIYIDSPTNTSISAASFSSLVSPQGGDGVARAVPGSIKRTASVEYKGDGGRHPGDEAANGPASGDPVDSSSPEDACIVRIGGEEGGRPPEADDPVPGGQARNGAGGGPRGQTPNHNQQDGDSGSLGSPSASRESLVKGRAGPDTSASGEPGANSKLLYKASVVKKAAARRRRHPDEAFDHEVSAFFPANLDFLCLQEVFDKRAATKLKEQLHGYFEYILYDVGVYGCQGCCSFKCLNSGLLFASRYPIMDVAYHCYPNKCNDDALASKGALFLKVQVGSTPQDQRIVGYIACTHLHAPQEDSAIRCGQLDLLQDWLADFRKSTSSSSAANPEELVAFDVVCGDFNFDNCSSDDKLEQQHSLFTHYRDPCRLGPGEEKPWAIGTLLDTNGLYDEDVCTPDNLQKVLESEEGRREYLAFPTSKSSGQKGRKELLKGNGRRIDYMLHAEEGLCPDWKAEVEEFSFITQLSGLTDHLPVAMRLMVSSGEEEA

[12] = system: GFAP-GFP mice; details: co-injection with IL-1β, Dickens et al. 2017; cited from earlier work
[13] = 10 mg/kg IP 0.5 h before IL-1β, 2 h post IL-1β
[14] = 10 mg/kg IP, liver qRT-PCR 2 h post IL-1β

O=c1[nH]c(=S)[nH]c(-c2ccccc2)c1Cc1c(O)ccc2ccccc12 [Cambinol]
in vivo pharmacokinetic profile, in words [2]: poor in vivo pharmacokinetic profile

COc1cc(OC)cc(-c2nc(-c3cccs3)c(-c3ccccc3)[nH]2)c1 [DPT, 2-(3,5-dimethoxyphenyl)-5-phenyl-4-(thiophen-2-yl)-1H-imidazole]
effect on exosome (EV) release in vitro, in words ([3]; listed as des hydroxyl inactive analog of DPTIP): did not inhibit
effect on exosome (EV) release in vitro, in words ([3]; listed as des-hydroxyl analog): no effect
effect on exosome (EV) release in vitro, in words ([3]; listed as inactive analog): no effect
GFAP levels without serum starvation [4]: did not change GFAP levels
astrocyte activation (GFAP) in response to serum starvation [4]: failed to prevent astrocyte activation
effect on IL-1β-induced EV release in vivo, in words [5, 13]: no significant difference
effect on IL-1β-induced EV release in vivo, in words ([5]; 10 mg/kg IP 0.5 h before IL-1β, 2 h post IL-1β, listed as des-hydroxyl analog): no difference
effect on IL-1β-induced EV release in vivo, in words ([5]; 10 mg/kg IP 0.5 h before IL-1β, 2 h post IL-1β, listed as inactive analog): no statistically significant effect
effect on IL-1β-induced upregulation of liver cytokines [5, 14]: no effect
effects on production of TNF-α and IL-6 [5, 14]: marginal and not statistically significant
reduction in CCL2 production [5, 14]: not statistically significant

COc1cc(-c2nc(-c3cccs3)c(-c3ccccc3)[nH]2)cc(OC)c1O [DPTIP, 2,6-dimethoxy-4-(5-phenyl-4-thiophen-2-yl-1H-imidazol-2-yl)-phenol]
pIC50 [6]: < 4.00
pIC50 [7]: < 4.00
metabolic stability, in words ([8]; mouse liver microsomes with NADPH): metabolically stable
percent remaining ([8]; mouse liver microsomes, NADPH, 1 h, 1 μM compound): 100%
metabolic stability, in words ([9]; human liver microsomes with NADPH): metabolically stable
percent remaining ([9]; human liver microsomes, NADPH, 1 h, 1 μM compound): 100%
pEC50 ([3]; Mus musculus, Astrocyte, primary astrocytes activated by FBS withdrawal, 2 h treatment): ~5.52
effect on exosome (EV) release in vitro, in words [3]: inhibited exosome release from astrocytes in a dose dependent manner; also recorded: inhibitor of EV release; also recorded: inhibits exosome release
GFAP levels without serum starvation [4]: did not change GFAP levels
astrocyte activation (GFAP) in response to serum starvation [4]: prevented astrocyte activation
weak activity observed in NCATS bioassays [10]: 2 to 50 µM
mode of inhibition with respect to sphingomyelin [11]: noncompetitive inhibition; also recorded: non-competitive
effect on IL-1β-induced EV release in vivo, in words [5, 13]: inhibitor of EV release; also recorded: inhibits exosome release
reduction of IL-1β-induced astrocyte-derived (GFP+) EVs in plasma [5, 13]: 51±13% and 70%
effect on IL-1β-induced upregulation of liver cytokines [5, 14]: inhibited

COc1cc(O)c(C(=O)O)c(-c2cc(O)c(O)cc2C)c1 [altenusin]
neutrophil infiltration into brain parenchyma [12]: suppresses neutrophil infiltration

Source: patent US11766423B2 (THE JOHNS HOPKINS UNIVERSITY, priority 2018, dated 2023)
